From patent publication US20130184302A1, “METHODS FOR TREATING IRRITABLE BOWEL SYNDROME (IBS) AND INFECTIONS” (priority 2011, published 2013)

What was measured:
subjects with IBS = assay: Sustained response and recurrence of symptoms after Primary Evaluation Period, rolling 4 weeks; type: in vivo, human
Experimental: An evaluation of the enrolled subjects was carried out after the Primary Evaluation Period in the study described in Examples 5-7. […] Subjects with no recurrence are defined as having a stool consistency score of less than 4, abdominal pain reduced by at least 30 percent or both.

[1] = tested on: patients with cirrhosis and overt HE episodes; assay: Rates of commonly-occurring infections and antibiotic use in cirrhotic patients with HE on long-term rifaximin; type: in vivo
From the text: Cirrhosis patients can have an increased risk of infections and subsequent hospitalizations, leading to increased mortality. […] A description of the OLM and RCT can be found in WO 2011/005388, “METHODS OF TREATING HEPATIC ENCEPHALOPATHY,” which is incorporated herein by reference in its entirety. In the analysis below, the effect of long term RFX treatment on infection rates and antibiotic use was examined.
Patients with cirrhosis and ≧2 overt HE episodes within 12 months were enrolled in the RCT (RFX=140; placebo [PBO]=159); 170 new patients, in addition to 70 RFX and 82 PBO patients who rolled over from the RCT were enrolled in OLM. The “All RFX group” (n=392) consisted of RFX-treated patients in both studies. Infection rates per person exposure years (PEY) were compared across RCT and All RFX groups, and antibiotic use over time was examined.
In the 6 month RCT, RFX exposure was 50 PEY vs 46 PEY in the PBO group. Long term RFX exposure was for median =427 (2-1427) days, or 510 PEY.

subjects with d-IBS [2] = assay: Designed study of 14-day oral rifaximin 550 mg TID in d-IBS (Example 2); type: in vivo, human; conditions: oral rifaximin 550 mg TID 14 days
From the text: A measure of efficacy is based on subjects' answers to the Weekly Subject Global Assessment (SGA) questions over the 4 week study duration in relation to their IBS symptoms.

[3] = tested on: C. difficile infection (CDI); assay: CDI trial: subgroup analysis of diarrhea at TOC; type: in vivo, human; conditions: for Diarrhea, number of subjects / Diarrhea, percent of subjects / No Diarrhea, number of subjects / No Diarrhea, percent of subjects: at TOC; for Diarrhea at TOC: Treatment Difference: Rifaximin vs Vancomycin
From the text: Tables 42 and 43 set forth a subgroup analysis of diarrhea at TOC.

[4] = tested on: C. difficile infection (CDI); assay: CDI trial: global cure of diarrhea; type: in vivo, human
From the text: Subjects having a global cure of diarrhea are set for the in Table 45. Global cure of diarrhea was defined as subjects who were cured of diarrhea at TOC without recurrence at follow up.

[5] = tested on: C. difficile infection (CDI); assay: CDI trial: continuing illnesses; type: in vivo, human
[6] = tested on: C. difficile infection (CDI); assay: CDI trial: number of unformed stools during the treatment period; type: in vivo, human
From the text: FIG. 18 sets for the average number of unformed stools per day of the study.

subjects with d-IBS [7] = assay: Adequate relief of IBS symptoms and bloating (weekly yes/no questions), rifaximin BID study in d-IBS; type: in vivo, human; conditions: aIBS
[8] = Rolling 2-5 Weeks, First and Second Studies, Rifaximin (N = 624)
[9] = Rolling 3-6 Weeks, First and Second Studies
[10] = Rolling 4-7 Weeks, First and Second Studies
[11] = Rolling 4-7 Weeks, Rifaximin (N = 624)
[12] = Rolling 5-8 Weeks, First and Second Studies
[13] = Rolling 5-8 Weeks, Rifaximin (N = 624)
[14] = Rolling 6-9 Weeks, First and Second Studies
[15] = Rolling 6-9 Weeks, Rifaximin (N = 624)
[16] = Rolling 7-10 Weeks, First and Second Studies
[17] = Rolling 7-10 Weeks, Rifaximin (N = 624)
[18] = Rolling 8-11 Weeks, First and Second Studies
[19] = Rolling 8-11 Weeks, Rifaximin (N = 624)
[20] = Rolling 9-12 Weeks, First and Second Studies
[21] = Rolling 9-12 Weeks, Rifaximin (N = 624)
[22] = subgroup Age <65, Rifaximin N = 69, Vancomycin N = 62
[23] = subgroup Age >=65, Rifaximin N = 39, Vancomycin N = 49
[24] = subgroup Female, Rifaximin N = 68, Vancomycin N = 64
[25] = subgroup Male, Rifaximin N = 40, Vancomycin N = 47
[26] = Rifaximin N = 117, Vancomycin N = 115
[27] = cured of diarrhea at TOC without recurrence at follow up, Rifaximin N = 117, Vancomycin N = 115

CO[C@H]1/C=C/O[C@@]2(C)Oc3c(C)c(O)c4c(O)c(c5c(nc6cc(C)ccn65)c4c3C2=O)NC(=O)/C(C)=C\C=C\[C@H](C)[C@H](O)[C@@H](C)[C@@H](O)[C@@H](C)[C@H](OC(C)=O)[C@@H]1C [Rifaximin, (2S,16Z,18E,20S,21S,22R, 23R,24R,25S,26S,27S,28E)-5,6,21,23,25 Pentahydroxy-27-methoxy-2,4,11,16,20,22,24,26-octamethyl-2,7-(epoxypentadeca-(1,11,13)trienimino) benzofuro (4,5-e) pyrido(1,2,-a) benzimidazole-1,15(2H)-dione,25-acetate]
Abdominal Pain or Stool Consistency: Sustained Durable Response (subjects with IBS; First and Second Studies, Rifaximin (N = 624)): (28.8%)
Abdominal Pain & Stool Consistency: Sustained Durable Response (subjects with IBS; Rifaximin (N = 624)): (33.2%)
Abdominal Pain: Sustained Durable Response (subjects with IBS; Rifaximin (N = 624)): (35.7%)
Stool Consistency: Sustained Durable Response (subjects with IBS; Rifaximin (N = 624)): (68.9%)
Abdominal Pain or Stool Consistency: No Recurrence (subjects with IBS; [8]): (45.8%)
Abdominal Pain or Stool Consistency: Recurrence (subjects with IBS; [8]): (1.9%)
Abdominal Pain or Stool Consistency: No Recurrence (subjects with IBS; [9]): (43.9%)
Abdominal Pain or Stool Consistency: Recurrence (subjects with IBS; [9]): (3.7%)
Abdominal Pain or Stool Consistency: No Recurrence (subjects with IBS; [10]): (40.2%)
Abdominal Pain or Stool Consistency: Recurrence (subjects with IBS; [10]): (2.7%)
Abdominal Pain & Stool Consistency: No Recurrence (subjects with IBS; [11]): (48.2%)
Abdominal Pain & Stool Consistency: Recurrence (subjects with IBS; [11]): (3.7%)
Abdominal Pain: No Recurrence (subjects with IBS; [11]): (51.9%)
Abdominal Pain: Recurrence (subjects with IBS; [11]): (3.8%)
Stool Consistency: No Recurrence (subjects with IBS; [11]): (78.8%)
Stool Consistency: Recurrence (subjects with IBS; [11]): (1.3%)
Abdominal Pain or Stool Consistency: No Recurrence (subjects with IBS; [12]): (37.5%)
Abdominal Pain or Stool Consistency: Recurrence (subjects with IBS; [12]): (2.6%)
Abdominal Pain & Stool Consistency: No Recurrence (subjects with IBS; [13]): (44.6%)
Abdominal Pain & Stool Consistency: Recurrence (subjects with IBS; [13]): (3.2%)
Abdominal Pain: No Recurrence (subjects with IBS; [13]): (48.1%)
Abdominal Pain: Recurrence (subjects with IBS; [13]): (3.0%)
Stool Consistency: No Recurrence (subjects with IBS; [13]): (77.6%)
Stool Consistency: Recurrence (subjects with IBS; [13]): (2.1%)
Abdominal Pain or Stool Consistency: No Recurrence (subjects with IBS; [14]): (34.9%)
Abdominal Pain or Stool Consistency: Recurrence (subjects with IBS; [14]): (1.6%)
Abdominal Pain & Stool Consistency: No Recurrence (subjects with IBS; [15]): (41.3%)
Abdominal Pain & Stool Consistency: Recurrence (subjects with IBS; [15]): (2.2%)
Abdominal Pain: No Recurrence (subjects with IBS; [15]): (45.0%)
Abdominal Pain: Recurrence (subjects with IBS; [15]): (2.4%)
Stool Consistency: No Recurrence (subjects with IBS; [15]): (75.5%)
Stool Consistency: Recurrence (subjects with IBS; [15]): (2.6%)
Abdominal Pain or Stool Consistency: No Recurrence (subjects with IBS; [16]): (33.3%)
Abdominal Pain or Stool Consistency: Recurrence (subjects with IBS; [16]): (1.6%)
Abdominal Pain & Stool Consistency: No Recurrence (subjects with IBS; [17]): (39.1%)
Abdominal Pain & Stool Consistency: Recurrence (subjects with IBS; [17]): (1.8%)
Abdominal Pain: No Recurrence (subjects with IBS; [17]): (42.6%)
Abdominal Pain: Recurrence (subjects with IBS; [17]): (2.4%)
Stool Consistency: No Recurrence (subjects with IBS; [17]): (72.9%)
Stool Consistency: Recurrence (subjects with IBS; [17]): (1.4%)
Abdominal Pain or Stool Consistency: No Recurrence (subjects with IBS; [18]): (31.7%)
Abdominal Pain or Stool Consistency: Recurrence (subjects with IBS; [18]): (1.3%)
Abdominal Pain & Stool Consistency: No Recurrence (subjects with IBS; [19]): (37.3%)
Abdominal Pain & Stool Consistency: Recurrence (subjects with IBS; [19]): (2.2%)
Abdominal Pain: No Recurrence (subjects with IBS; [19]): (40.2%)
Abdominal Pain: Recurrence (subjects with IBS; [19]): (2.2%)
Stool Consistency: No Recurrence (subjects with IBS; [19]): (71.5%)
Stool Consistency: Recurrence (subjects with IBS; [19]): (0.5%)
Abdominal Pain or Stool Consistency: No Recurrence (subjects with IBS; [20]): (30.4%)
Abdominal Pain or Stool Consistency: Recurrence (subjects with IBS; [20]): (1.6%)
Abdominal Pain & Stool Consistency: No Recurrence (subjects with IBS; [21]): (35.1%)
Abdominal Pain & Stool Consistency: Recurrence (subjects with IBS; [21]): (1.9%)
Abdominal Pain: No Recurrence (subjects with IBS; [21]): (38.0%)
Abdominal Pain: Recurrence (subjects with IBS; [21]): (2.2%)
Stool Consistency: No Recurrence (subjects with IBS; [21]): (71.0%)
Stool Consistency: Recurrence (subjects with IBS; [21]): (2.1%)
C. difficile infection, rate ([1]; All RFX Patients (n = 392), PEY = 510): (0.012) number of subjects/PEY
C. difficile infection, rate ([1]; RCT Patients, RFX (n = 140), PEY = 50): (0.040) number of subjects/PEY
Any infection, rate ([1]; human, in vivo): (0.072) number of subjects/PEY
Answers to weekly SGA question on adequate relief of IBS symptom of bloating (subjects with d-IBS [2]): respond “Yes” more often
Answers to weekly SGA question on adequate relief of IBS symptoms (subjects with d-IBS [2]): respond “Yes” more often
Diarrhea, number of subjects [3, 22]: 16
Diarrhea, percent of subjects [3, 22]: (23%)
No Diarrhea, number of subjects [3, 22]: 53
No Diarrhea, percent of subjects [3, 22]: (77%)
Diarrhea, number of subjects [3, 23]: 6
Diarrhea, percent of subjects [3, 23]: (15%)
No Diarrhea, number of subjects [3, 23]: 33
No Diarrhea, percent of subjects [3, 23]: (85%)
Diarrhea, number of subjects [3, 24]: 14
Diarrhea, percent of subjects [3, 24]: (21%)
No Diarrhea, number of subjects [3, 24]: 54
No Diarrhea, percent of subjects [3, 24]: (79%)
Diarrhea, number of subjects [3, 25]: 8
Diarrhea, percent of subjects [3, 25]: (20%)
No Diarrhea, number of subjects [3, 25]: 32
No Diarrhea, percent of subjects [3, 25]: (80%)
Diarrhea at TOC: Treatment Difference ([3]; subgroup Age <65): −3.8%
Diarrhea at TOC: Treatment Difference ([3]; subgroup Age >=65): 3.0%
Diarrhea at TOC: Treatment Difference ([3]; subgroup Female): −3.4%
Diarrhea at TOC: Treatment Difference ([3]; subgroup Male): 1.3%
Global Cure of Diarrhea: No, number of subjects [4, 26]: 34
Global Cure of Diarrhea: No, percent of subjects [4, 26]: (29%)
Global Cure of Diarrhea: Treatment Difference ([4]; Rifaximin vs Vancomycin): −3.0%
Global Cure of Diarrhea: Yes, number of subjects [4, 27]: 83
Global Cure of Diarrhea: Yes, percent of subjects [4, 27]: (71%)
Continuing Illness: No, number of subjects [5, 26]: 90
Continuing Illness: No, percent of subjects [5, 26]: (77%)
Continuing Illness: Yes, number of subjects [5, 26]: 27
Continuing Illness: Yes, percent of subjects [5, 26]: (23%)
Continuing Illness: Treatment Difference ([5]; Rifaximin vs Vancomycin): −9.2%
Adjusted mean number of unformed stools-ANOVA: Treatment Difference (95% CI) ([6]; Rifaximin vs Vancomycin, treatment period): 0.46 (−0.08, 1.00)
Overall treatment difference in number of unformed stools-Mixed Model: Treatment Difference (95% CI) ([6]; Rifaximin vs Vancomycin, mixed effects model with treatment, center, study day as fixed effects): 0.32 (−0.08, 0.72)
Adjusted mean number of unformed stools-ANOVA ([6]; during the treatment period, ANOVA model with treatment and center as main effects, Rifaximin N = 117, Vancomycin N = 115): 2.36
Treatment effect, Bloating (subjects with d-IBS [7]): 31.4%*, 31.4%
